Assay results from PubChem BioAssay AID179 (DTP/NCI, 2004).
“And” between values parts separate entries of the source, which are not always exact repeats. Equal entries are not always repeated. The source made the active and inactive calls.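 The calls were made as follows: active = compounds giving half or more protection of infected cells from virus-caused growth loss, again on retest; inactive = the rest.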

Test system: CEM cells HIV-1 protection, formazan growth assay
Assay: NCI AIDS Antiviral Assay
Settings: for IC50: measured here: growth of uninfected CEM cells
Procedure, shortened: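 Five concentrations of each compound were applied to infected and uninfected human CEM cells. Protection from HIV-1 was judged from growth measured with a soluble formazan assay.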

Clc1cccc(C2=NOC3COC4C=CC=CC4OCC23)c1 (stereo not given)
EC50: > 58.9 µM | IC50: > 58.9 µM

COc1ccc(OCC(=O)O)c2c1CCC(C(C)C)C2=O (stereo not given)
outcome: inactive

C[C@@H](CN1CC(=O)NC(=O)C1)N1CC(=O)NC(=O)C1
EC50: > 933 µM | IC50: 91.2 µM

CN1CC[C@@H](O)C(CNC23CC4CC(CC(C4)C2)C3)C1 (stereo not given in full)
EC50: > 200 µM | IC50: > 200 µM

S=C1Cc2c(-c3ccccc3)cc(-c3cccc(Cl)c3)nc2-c2ccccc2N1
outcome: inactive

O=C(O)C1=C(C(=O)O)C2c3ccccc3C1c1ccccc12
EC50: > 200 µM | IC50: > 200 µM

Cc1cc(=O)[nH]c(=S)n1-c1nc2ccccc2o1
EC50: > 115 µM | IC50: > 115 µM

CC(=O)NCCSS(=O)(=O)CCCCS(=O)(=O)SCCNC(C)=O
EC50: 117 µM | IC50: 214 µM

CCOc1ccc(N=C2NC(=O)C(CC(=O)Nc3ccc(Cl)cc3Cl)S2)cc1 (stereo not given)
EC50: > 214 µM | IC50: > 214 µM

COC1OC2COC(C)(C)OC2C2OC(C)(C)OC12 (stereo not given)
EC50: > 200 µM | IC50: 182 µM

Fc1ccccc1CN1COc2c(cc(Cl)c3cccnc23)C1
EC50: > 200 µM | IC50: 3.09 µM

COC(=O)[C@H]1N[C@@H](C(=O)OC)C23CCC[C@H]2CC[C@]1(C(OC)OC)C3
EC50: > 708 µM | IC50: 389 µM

OCC1OC(n2cnc3c(Cl)nc(Nc4ccc(Cl)c(Cl)c4)nc32)CC1O (stereo not given)
EC50: > 200 µM | IC50: 3.72 µM

CNC(=O)c1ccccc1CNC(=S)Nc1cccc(C)c1
EC50: > 200 µM | IC50: > 200 µM

CNC(=O)N1CCN(C(=O)NC)CCN(C(=O)NC)CC1
EC50: > 200 µM | IC50: > 200 µM

CC1(C)OCC2OC3([C@H]4OC(C)(C)O[C@@H]4CO)OC(C)(C)OC3C2O1 (stereo not given in full)
EC50: > 200 µM | IC50: > 200 µM

CCOC(=O)c1cc2c([nH]1)c(OC(C)=O)cc1c2ccn1Cc1ccccc1
EC50: > 200 µM | IC50: > 200 µM

O=C1CC(c2ccccc2)Sc2ccccc2N1 (stereo not given)
EC50: > 200 µM | IC50: 89.1 µM

O=C1CC(C(O)CO)CC(=O)N1 (stereo not given)
EC50: > 200 µM | IC50: > 200 µM

N#CC(C#N)=Cc1ccccc1O
EC50: > 200 µM | IC50: 40.7 µM

C[Si](C)(C)[C@@]1([Se]c2ccccc2)CC[C@@H]1C(=O)c1ccccc1
EC50: > 13.5 µM | IC50: > 13.5 µM

Cc1ccc(-c2cc(-c3ccco3)c(C#N)c(=S)[nH]2)cc1
EC50: > 200 µM | IC50: 120 µM

CC1=C(O)C(=O)C2C(=O)C1C(C)C2c1ccc(C)cc1 (stereo not given)
EC50: > 251 µM | IC50: > 251 µM

Cc1ccc(N=NC2=C3Sc4ccccc4N=C2N(c2ccc(Br)cc2)C(=S)N3c2ccc(Cl)cc2)cc1
EC50: > 45.7 µM | IC50: > 45.7 µM

CCOC(=O)c1c[nH]c(C(=O)C=[N+]=[N-])c1C1CCN(CC)C1=S (stereo not given)
EC50: > 200 µM | IC50: 138 µM

C=C1OC(c2ccccc2NC)=NC12CCCCC2
EC50: > 200 µM | IC50: 115 µM

Cc1nc(-c2cccnc2)sc1C(=O)/C=C/c1cccc([N+](=O)[O-])c1
EC50: > 74.1 µM | IC50: > 74.1 µM

CC(=O)c1cccc(C)c1C(=O)O
outcome: inactive

N=c1ccn2c(n1)OC1C(O)C(CO)OC12 (stereo not given)
EC50: 37.2 µM and > 2 µM

Nc1cc2c(cc1-n1cccc1)oc1ccccc12
EC50: > 200 µM | IC50: 19.5 µM

C[C@@H](c1ccccc1)C(CC#N)[C@H]1CCC[C@]1(O)C#Cc1ccc2c(c1)OCO2 (stereo not given in full)
EC50: > 200 µM | IC50: 11.5 µM

Clc1ccc(/C=N/Nc2nnc3c4ccccc4c4ncccc4c3n2)cc1
EC50: > 50.1 µM | IC50: > 50.1 µM

CCCCCCCCCCCCS(=O)(=O)O.[Pb]
EC50: > 200 µM | IC50: > 200 µM

CC(C)C(O)C(=O)C(F)C(C)C (stereo not given)
EC50: > 1410 µM | IC50: > 1410 µM

CN1CCN=C1c1ccc(NC(=O)c2ccc(C(=O)Nc3ccc(C4=NCCN4C)cc3)cc2)cc1
EC50: > 200 µM | IC50: 74.1 µM

COC(=O)c1c(N)n[nH]c1N
outcome: inactive

Cc1ccc(C2=Nc3ccc(F)cc3SC(C(=O)O)C2)cc1 (stereo not given)
outcome: inactive

COC(=O)C1(F)C(=O)NC(=O)NC1O (stereo not given)
EC50: > 200 µM | IC50: 91.2 µM
